Assay results published in patent US20220162192A1 (ESCAPE Bio, Inc., priority 2019, published 2022).

Columns and labels:
[1] = target: T1, Recombinant wild type LRRK2 protein (Homo sapiens, UniProt Q5S007); assay: LanthaScreen Kinase Activity Assay (TR-FRET), wild type LRRK2; type: biochemical; conditions: class symbols; 25 μM ATP, 400 nM LRRKtide, 2.9 nM kinase, 60 min at room temperature; read-out: LRRK2 WT IC50
T1 construct: purchased Life Technologies PR8604B
Method in brief: (§1)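 Recombinant wild-type or G2019S LRRK2 (2.9 nM final) phosphorylated fluorescein-LRRKtide (400 nM) with 25 μM ATP in 50 mM Tris pH 8.5, 5 mM MgCl2, 1 mM EGTA, 0.01% Brij-35, 2 mM DTT for 60 min at RT. After EDTA stop, Tb-anti-pERM TR-FRET (520/495 nm ratio) was read. IC50 values came from 11-point, 3-fold compound dilutions.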

[2] = target: T2, Recombinant G2019S-LRRK2 protein (Homo sapiens, UniProt Q5S007, G2019S); assay: LanthaScreen Kinase Activity Assay (TR-FRET), G2019S-LRRK2; type: biochemical; conditions: class symbols; 25 μM ATP, 400 nM LRRKtide, 2.9 nM kinase, 60 min at room temperature
T2 construct: purchased Life Technologies PV4881
T2 sequence (Q5S007 whole entry G2019S): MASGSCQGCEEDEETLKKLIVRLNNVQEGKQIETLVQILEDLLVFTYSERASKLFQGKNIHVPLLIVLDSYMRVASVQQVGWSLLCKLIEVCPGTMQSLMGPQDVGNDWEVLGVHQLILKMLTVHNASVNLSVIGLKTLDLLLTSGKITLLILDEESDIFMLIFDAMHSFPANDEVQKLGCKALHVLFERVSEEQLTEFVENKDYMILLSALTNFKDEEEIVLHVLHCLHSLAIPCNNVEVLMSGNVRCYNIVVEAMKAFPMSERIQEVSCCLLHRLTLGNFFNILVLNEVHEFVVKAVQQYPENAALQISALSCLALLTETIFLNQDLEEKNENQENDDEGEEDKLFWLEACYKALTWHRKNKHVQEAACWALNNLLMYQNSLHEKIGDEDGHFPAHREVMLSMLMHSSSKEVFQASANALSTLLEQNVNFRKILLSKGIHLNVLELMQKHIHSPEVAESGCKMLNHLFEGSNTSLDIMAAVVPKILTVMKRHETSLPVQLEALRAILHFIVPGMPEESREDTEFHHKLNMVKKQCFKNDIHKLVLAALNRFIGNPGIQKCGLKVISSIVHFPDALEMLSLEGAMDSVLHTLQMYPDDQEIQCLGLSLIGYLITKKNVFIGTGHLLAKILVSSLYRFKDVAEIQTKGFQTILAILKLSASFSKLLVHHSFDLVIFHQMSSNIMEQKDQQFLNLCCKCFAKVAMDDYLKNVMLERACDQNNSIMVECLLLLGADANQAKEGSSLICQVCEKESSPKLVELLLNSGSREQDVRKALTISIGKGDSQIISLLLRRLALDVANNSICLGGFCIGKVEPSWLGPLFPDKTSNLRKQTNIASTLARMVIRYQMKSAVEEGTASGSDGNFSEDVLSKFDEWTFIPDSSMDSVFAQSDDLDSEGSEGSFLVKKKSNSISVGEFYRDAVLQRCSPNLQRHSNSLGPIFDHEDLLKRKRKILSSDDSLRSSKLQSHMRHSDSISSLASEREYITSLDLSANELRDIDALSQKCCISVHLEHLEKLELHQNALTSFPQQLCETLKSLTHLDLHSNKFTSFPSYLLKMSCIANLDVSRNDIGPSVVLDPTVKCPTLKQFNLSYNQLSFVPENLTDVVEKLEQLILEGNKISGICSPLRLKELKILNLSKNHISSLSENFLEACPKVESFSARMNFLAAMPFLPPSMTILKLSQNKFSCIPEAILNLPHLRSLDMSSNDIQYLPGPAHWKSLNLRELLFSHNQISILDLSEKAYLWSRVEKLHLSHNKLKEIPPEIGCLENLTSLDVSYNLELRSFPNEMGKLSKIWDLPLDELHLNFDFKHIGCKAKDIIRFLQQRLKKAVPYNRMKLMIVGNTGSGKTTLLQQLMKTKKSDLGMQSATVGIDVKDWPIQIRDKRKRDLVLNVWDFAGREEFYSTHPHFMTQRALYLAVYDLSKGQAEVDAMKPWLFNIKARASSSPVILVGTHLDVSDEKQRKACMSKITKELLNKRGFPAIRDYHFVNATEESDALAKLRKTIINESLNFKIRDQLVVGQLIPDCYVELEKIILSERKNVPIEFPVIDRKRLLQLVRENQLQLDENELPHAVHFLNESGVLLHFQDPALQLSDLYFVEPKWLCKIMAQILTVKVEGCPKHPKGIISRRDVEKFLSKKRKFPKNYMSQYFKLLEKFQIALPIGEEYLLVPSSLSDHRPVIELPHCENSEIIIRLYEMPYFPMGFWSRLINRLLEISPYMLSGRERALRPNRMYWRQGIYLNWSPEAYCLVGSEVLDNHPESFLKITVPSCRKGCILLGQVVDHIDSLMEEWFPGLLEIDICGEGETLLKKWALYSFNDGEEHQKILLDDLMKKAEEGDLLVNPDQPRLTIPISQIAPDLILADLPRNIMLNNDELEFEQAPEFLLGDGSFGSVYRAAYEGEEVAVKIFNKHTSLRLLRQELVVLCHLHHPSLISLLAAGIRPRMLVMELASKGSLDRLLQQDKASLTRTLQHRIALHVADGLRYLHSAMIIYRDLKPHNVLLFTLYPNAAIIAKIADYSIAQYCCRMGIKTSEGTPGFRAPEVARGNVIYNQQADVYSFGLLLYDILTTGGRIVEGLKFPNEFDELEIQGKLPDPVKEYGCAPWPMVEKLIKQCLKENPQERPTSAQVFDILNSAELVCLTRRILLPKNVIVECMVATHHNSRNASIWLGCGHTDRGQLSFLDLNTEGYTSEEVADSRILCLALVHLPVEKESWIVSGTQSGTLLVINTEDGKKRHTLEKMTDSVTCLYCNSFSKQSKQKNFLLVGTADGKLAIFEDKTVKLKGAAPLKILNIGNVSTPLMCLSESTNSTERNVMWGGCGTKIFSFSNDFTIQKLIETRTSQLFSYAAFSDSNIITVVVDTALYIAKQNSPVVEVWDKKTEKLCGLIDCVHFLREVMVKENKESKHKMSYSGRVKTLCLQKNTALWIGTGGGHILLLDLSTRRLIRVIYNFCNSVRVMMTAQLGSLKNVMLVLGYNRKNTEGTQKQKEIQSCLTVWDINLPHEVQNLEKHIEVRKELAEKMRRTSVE
Method in brief: as §1

T1 sequence (Q5S007 whole entry): as the sequence (Q5S007 whole entry G2019S) above, with S2019G counted along it

| Compound | IC50 [1] [nM] | IC50 [2] [nM] |
| --- | --- | --- |
| O=C(Nc1ccc2[nH]nc(-c3ccoc3)c2c1)c1ccc2ocnc2c1 [Example 126, N-(3-(Furan-3-yl)-1H-indazol-5-yl)benzo[d]oxazole-5-carboxamide] | 100 to 1000 | ≤ 100 |
| O=C(Nc1ccc2[nH]nc(-c3ccccc3)c2c1)c1c(Cl)cn2cnnc2c1Cl [Example 63, 6,8-dichloro-N-(3-phenyl-1H-indazol-5-yl)-[1,2,4]triazolo[4,3-a]pyridine-7-carboxamide] | ≤ 100 | ≤ 100 |
| Cc1oncc1-c1n[nH]c2ccc(NC(=O)c3c(F)cc4c(cnn4C)c3F)cc12 [Example 29, 4,6-Difluoro-1-methyl-N-(3-(5-methylisoxazol-4-yl)-1H-indazol-5-yl)-1H-indazole-5-carboxamide] | 100 to 1000 | ≤ 100 |
| Cn1ncc2c(F)c(C(=O)Nc3ccc4[nH]nc(NCc5ccccc5)c4c3)c(F)cc21 [Example 110, N-(3-(Benzylamino)-1H-indazol-5-yl)-4,6-difluoro-1-methyl-1H-indazole-5-carboxamide] | 100 to 1000 | ≤ 100 |
| Cn1ncc2c(F)c(C(=O)Nc3ccc4[nH]nc(-c5cnn(C(F)F)c5)c4c3)c(F)cc21 [Example 86, N-(3-(1-(Difluoromethyl)-1H-pyrazol-4-yl)-1H-indazol-5-yl)-4,6-difluoro-1-methyl-1H-indazole-5-carboxamide] | ≤ 100 | ≤ 100 |
| O=C(Nc1ccc2[nH]nc(-c3ccoc3)c2c1)c1cc2ncccc2s1 [Example 125, N-(3-(Furan-3-yl)-1H-indazol-5-yl)thieno[3,2-b]pyridine-2-carboxamide] | 100 to 1000 | ≤ 100 |
| Cc1cc2cncn2c(C)c1C(=O)Nc1ccc2[nH]nc(-c3ccoc3)c2c1 [Example 151, N-(3-(Furan-3-yl)-1H-indazol-5-yl)-5,7-dimethylimidazo[1,5-a]pyridine-6-carboxamide] | ≤ 100 | ≤ 100 |
| Cc1nn2ccncc2c1C(=O)Nc1ccc2[nH]nc(-c3ccoc3)c2c1 [Example 164, N-(3-(furan-3-yl)-1H-indazol-5-yl)-2-methylpyrazolo[1,5-a]pyrazine-3-carboxamide] | 100 to 1000 | 100 to 1000 |
| Cc1cc2cn[nH]c2cc1C(=O)Nc1ccc2[nH]nc(-c3ccccc3)c2c1 [Example 23, 5-Methyl-N-(3-phenyl-1H-indazol-5-yl)-1H-indazole-6-carboxamide] | ≤ 100 | ≤ 100 |
| Cc1c(C(=O)Nc2ccc3[nH]nc(-c4cnco4)c3c2)ncc2c1cnn2C [Example 169, 1,4-Dimethyl-N-(3-(oxazol-5-yl)-1H-indazol-5-yl)-1H-pyrazolo[3,4-c]pyridine-5-carboxamide] | 100 to 1000 | ≤ 100 |
| Cc1c(C(=O)Nc2ccc3[nH]nc(-c4ccccc4)c3c2)c(Cl)cn2cnnc12 [Example 59, 6-Chloro-8-methyl-N-(3-phenyl-1H-indazol-5-yl)-[1,2,4]triazolo[4,3-a]pyridine-7-carboxamide] | ≤ 100 | ≤ 100 |
| Cn1ncc2c(F)c(C(=O)Nc3ccc4[nH]nc(-c5cocn5)c4c3)c(F)cc21 [Example 136, 4,6-Difluoro-1-methyl-N-(3-(oxazol-4-yl)-1H-indazol-5-yl)-1H-indazole-5-carboxamide] | 100 to 1000 | ≤ 100 |
| Cc1cn2cncc2cc1C(=O)Nc1ccc2[nH]nc(-c3ccccc3)c2c1 [Example 52, 6-Methyl-N-(3-phenyl-1H-indazol-5-yl)imidazo[1,5-a]pyridine-7-carboxamide] | ≤ 100 | ≤ 100 |
| Cc1cc2nncn2c(C)c1C(=O)Nc1ccc2[nH]nc(C)c2c1 [Example 61, 5,7-Dimethyl-N-(3-methyl-1H-indazol-5-yl)-[1,2,4]triazolo[4,3-a]pyridine-6-carboxamide] | 100 to 1000 | ≤ 100 |
